Paper PMC4764322, “An Unusual Member of the Papain Superfamily: Mapping the Catalytic Cleft of the Marasmius oreades agglutinin (MOA) with a Caspase Inhibitor” (PLoS ONE, 2016)
Residues, ends and D or L forms follow the SMILES beside them. *: point of attachment. Cbz = O=C(OCc1ccccc1)*; CH2F = FC*

Tests used:
[1] = biological target: T1, Marasmius oreades agglutinin (MOA) (Marasmius oreades, UniProt Q8X123); experiment: X-ray crystal structure (co-crystal, […]-1.[…] Å); assay type: binding; conditions: calcium, imidazole pH 8.0
T1 construct: wild-type full-length 293 aa cDNA (MOApT7-LO), E. coli BL21(DE3), no tag mentioned; homodimer; model residues 2-293, Met1 probably cleaved

[2] = biological target: the molecule itself; experiment: crystal structure; MOA 5 mg/ml mixed with Galα1,3(Fucα1,2)Gal trisaccharide (1:20) and Z-VAD-fmk (1:3, 1:20 or 1:30 MOA:inhibitor); 0.1 M imidazole pH 8.0, 10-16% PEG 8000, 0.2 M calcium acetate, with or without 5% DMSO; space group P6(3)22; three data sets (ZVAD-direct, ZVAD-inverted, ZVAD-dual)

## C[C@@H]1O[C@@H](O[C@H]2C(O)O[C@H](CO)[C@H](O)[C@@H]2O[C@H]2O[C@H](CO)[C@H](O)[C@H](O)[C@H]2O)[C@@H](O)[C@H](O)[C@@H]1O (stereo partly drawn) [Galα1,3(Fucα1,2)Gal trisaccharide]
[1]; three lectin-domain sugar sites (α, β, γ), 1:20 MOA:sugar
  X-ray crystal structure (co-crystal, 1.6-1.7 Å): The three sugar binding sites of MOA show a different preference for the anomeric form

## CC(C)[C@H](NC(=O)OCc1ccccc1)C(=O)N[C@@H](C)C(=O)N[C@@H](CC(=O)O)C(=O)CF [Z-VAD-fmk] (Cbz-Val-Ala-Asp-CH2F)
[1]; covalent, thioether with catalytic Cys215, direct and inverted orientations
  X-ray crystal structure (co-crystal, 1.6-1.7 Å): the inhibitor molecule binds to the active site of MOA forming a thioether

B1: Marasmius oreades agglutinin (MOA), wild type (enzyme)
chain: MSLRRGIYHIENAGVPSAIDLKDGSSSDGTPIVGWQFTPDTINWHQLWLAEPIPNVADTFTLCNLFSGTYMDLYNGSSEAGTAVNGWQGTAFTTNPHQLWTIKKSSDGTSYKIQNYGSKTFVDLVNGDSSDGAKIAGWTGTWDEGNPHQKWYFNRMSVSSAEAQAAIARNPHIHGTYRGYILDGEYLVLPNATFTQIWKDSGLPGSKWREQIYDCDDFAIAMKAAVGKWGADSWKANGFAIFCGVMLGVNKAGDAAHAYNFTLTKDHADIVFFEPQNGGYLNDIGYDSYMAFY
notes: Marasmius oreades agglutinin, wild-type cDNA in vector MOApT7-LO; 293 amino acids; Homodimer; one protomer in the asymmetric unit, the dimer arises by crystallographic symmetry; source: E. coli BL21 (DE3), purified (D-Gal-sepharose, cation exchange, size exclusion)
[2]
  binding result: binds
